In article PMC6271245, “Discovery of Gramine Derivatives That Inhibit the Early Stage of EV71 Replication in Vitro” (Molecules, 2014):

Tests used:
EV71 RNA = experiment: Viral RNA synthesis by quantitative RT-PCR in RD cells; format: cell-based, Enterovirus 71; settings: 40 µg/mL
Procedure: To further analyze the effect of 4s on EV71 replication in RD cells, the efficacy of 4s in inhibiting viral RNA synthesis was analyzed by quantitative reverse transcription polymerase chain reaction (RT-PCR). The infected cells treated with or without 40 µg/mL 4s were harvested at 4, 8, 24 and 36 h pi to examine the relative amount of viral RNA. The fold difference of RNA for all the samples was calculated relative to the RNA level in the EV71-infected cells (virus control) at 4 h pi.
(§1) Figure 4 The effect of 4s on EV71 replication in RD cells. RD cells infected with 100 TCID50 of EV71 were incubated in the absence (virus control) or presence of 40 µg/mL 4s and harvested at the indicated times pi. (A) Total RNA was extracted from cells and culture supernatants and EV71 RNA levels were measured. Cellular actin amplification was used for normalization. The ΔΔCt data were calculated from three independent experiments; (B) EV71-protein was determined by indirect immunofluorescence using a mouse anti-enterovirus 71 monoclonal antibody and an Alexa-Fluor-488-conjugated AffiniPure goat anti-mouse IgG (H + L). The nucleus was stained with DAPI; the green foci indicate the presence of EV71 protein.
The EV71 RNA was extracted from infected cells and culture supernatants with TRIzol (Gibco-Invitrogen, Carlsbad, CA, USA) and reverse-transcribed using a PrimeScript RT reagent kit (TaKaRa, Dalian, China) according to the manufacturer’s instructions. The products of reverse transcription were quantified with the SYBR Premix Ex Taq II (perfect real time) kit (TaKaRa) and detected with a Step One Plus sequence detection system (Applied Biosystems, Foster City, CA, USA). Expression of actin was used as an internal standard. The special primer sequences were: EV71-VP1-F: 5'-[…]-3', EV71-VP1-R: 5'-GTCTCAATCATGCTCTC GTCACT-3'; Actin-F: 5'-[…]-3', Actin-R: 5'-AGGGGCCGGACTCGT CATACT-3'.

EV71-infected RD cells = experiment: EV71-induced apoptosis, Annexin-V/propidium iodide flow cytometry; format: cell-based, Human; settings: 40 µg/mL, 100 TCID50 EV71, 36–48 h
Procedure: EV71 adsorption, internalization, entry, uncoating, and viral RNA replication are […] to trigger infected cell apoptosis, but it is required for viral protein synthesis. Flow cytometry was performed to investigate the effect of 4s on virus-induced cell apoptosis. In the assays, EV71-infected cells were stained with Annexin-V-fluorescein and propidium iodide; fluorescence drifting indicates cells undergoing apoptosis.
Figure 5 Inhibition effect of 4s on EV71-induced apoptosis. RD cells were (A) left untreated or (B) infected with 100 TCID50 of EV71. After viral adsorption, RD cells were incubated in the (B) absence or (C) presence of 40 µg/mL 4s for 36–48 h; (D) The cells were stained with Annexin-V- fluorescein and propidium iodide and measured using flow cytometry. TEXT PRINTED IN THE PICTURE: (C) Virus + 4s: Q1 3.21%; Q2 4.06%; Q4 89.2%; Q3 3.55% DOUBTS OF THE COPYIST ABOUT THIS PICTURE: Panels A (Mock) and B (Virus control) also print quadrant percentages (A: 0.548%, 1.84%, 93.9%, 3.75%; B: 1.32%, 40.1%, 23.7%, 34.9%). I left them out because they are controls without a substance.
For the apoptosis assay, RD cells in 6-well plates infected with 100 TCID50 of EV71 were left untreated or treated with 40 µg/mL 4s for 36–48 h, until the CPEs of virus control cells reached 70%–80%. […]

EV71 protein = experiment: Viral protein by indirect immunofluorescence in RD cells; format: cell-based, Enterovirus 71; settings: 40 µg/mL post-infection, RD cells, 4, 8 or 24 h
Procedure: as §1
The influence of 4s on the replication of EV71 was also determined at the translational level. The RD cells grown in 24 coverslips were infected with EV71 and treated with 40 µg/mL 4s post-infection, intracellular viral protein was detected by indirect immunofluorescence analysis after incubation for 4, 8 or 24 h. […]

c1ccc(C(Nc2nc3ccccc3s2)c2c[nH]c3ccccc23)nc1 (stereo not drawn) [Compound 4s] was tested, and the “fold reduction of viral RNA copy number vs virus control” value (“fold reduction of viral RNA copy number” for short) (EV71 RNA; 4 h pi) was 1.8 fold, the “fold reduction of viral RNA copy number” value (EV71 RNA; 8 h pi) was 9.0 fold and the “fold reduction of viral RNA copy number” value (EV71 RNA; 24 h pi) was 79.8 fold. For the same compound, the “fold reduction of viral RNA copy number” value (EV71 RNA; 36 h pi) was 174.7 fold, the “EV71-induced apoptosis (fluorescence drifting)” value (EV71-infected RD cells) was “fluorescence drifting could hardly be observed” and the “viral protein synthesis (immunofluorescent foci)” value (EV71 protein) was “suppressed”.
